# According to US12539292B2, “BRM targeting compounds and associated methods of use” (Arvinas Operations, Inc., priority 2018, dated 2026):
# Like-named read-outs stand apart in the source and are kept apart here.
# Target: T1, BRM (Homo sapiens, UniProt P51531)
# T1 construct: In-Cell Western Screen of BRM Degradation in SW1573 Cells; endogenous in cells; host or cells: SW1573
# Assay: In-cell Western screen of BRM degradation in SW1573 cells (Dmax and DC50)
# Type: cell-based
# Experimental: In-Cell Western Screen of BRM Degradation in SW1573 Cells
# To assess BRM degradation (Dmax and DC50), cells were seeded at 8000/well in 96-well black/clear-bottom plates in 180 μL DMEM growth media (containing 1% pen-strep, 1% HEPES and 10% FBS) per well. Plates were incubated overnight to allow adhesion. The next morning cells were treated by adding 20 μL of 10× compound (1% DMSO) to appropriate wells and returned to incubator for overnight (18-20 hours). The final DMSO concentration was 0.1%.
# For processing, the plates were removed from incubator, the media was removed, and immediately 200 μL of cold (4° C.) DPBS was added to all wells. DPBS was then removed, and 50 μL of 4% paraformaldehyde (PFA) in DPBS (4° C.) was added to all wells, and the plates were incubated at room temperature for 20 minutes. PFA was then removed, and 200 μL of TBS-T containing 0.5% Triton X-100 was added to all wells, and the plates were incubated at room temperature for 30 minutes. TBS-T containing 0.5% Triton X-100 was then removed, and 50 μL of Li-Cor blocking solution was added, and the plates were incubated at room temperature for a minimum of one hour.
# The next day plates were washed three times with TBS-T, 200 μL per well. Fifty (50) μL of secondary antibody cocktail in LI-COR blocking solution (anti-rabbit_800 nm and anti-mouse_680 nm) was added to all wells (diluted 1:5000). The plates were incubated at room temperature for at least one hour while protected from light. The plates were washed twice with TBS-T, 200 μL per well.
# To read each plate TBS-T was removed, and each plate was inverted tapped on a paper towel. The plates were read on the LI-COR Odyssey with default intensity settings of 5.0 for both channels. LI-COR images were analyzed with the in-cell Western feature of Image Studio Lite.
# [1] = BRM degradation, SW1573 cells, read-out: DC50
# [2] = BRM degradation, SW1573 cells, when tested at the top concentration of between 0.3 and 10 μM, read-out: Dmax (%) (% degraded)
# [3] = BRM degradation, SW1573 cells, Table 2D, read-out: *DC50
# T1 sequence (P51531 whole entry): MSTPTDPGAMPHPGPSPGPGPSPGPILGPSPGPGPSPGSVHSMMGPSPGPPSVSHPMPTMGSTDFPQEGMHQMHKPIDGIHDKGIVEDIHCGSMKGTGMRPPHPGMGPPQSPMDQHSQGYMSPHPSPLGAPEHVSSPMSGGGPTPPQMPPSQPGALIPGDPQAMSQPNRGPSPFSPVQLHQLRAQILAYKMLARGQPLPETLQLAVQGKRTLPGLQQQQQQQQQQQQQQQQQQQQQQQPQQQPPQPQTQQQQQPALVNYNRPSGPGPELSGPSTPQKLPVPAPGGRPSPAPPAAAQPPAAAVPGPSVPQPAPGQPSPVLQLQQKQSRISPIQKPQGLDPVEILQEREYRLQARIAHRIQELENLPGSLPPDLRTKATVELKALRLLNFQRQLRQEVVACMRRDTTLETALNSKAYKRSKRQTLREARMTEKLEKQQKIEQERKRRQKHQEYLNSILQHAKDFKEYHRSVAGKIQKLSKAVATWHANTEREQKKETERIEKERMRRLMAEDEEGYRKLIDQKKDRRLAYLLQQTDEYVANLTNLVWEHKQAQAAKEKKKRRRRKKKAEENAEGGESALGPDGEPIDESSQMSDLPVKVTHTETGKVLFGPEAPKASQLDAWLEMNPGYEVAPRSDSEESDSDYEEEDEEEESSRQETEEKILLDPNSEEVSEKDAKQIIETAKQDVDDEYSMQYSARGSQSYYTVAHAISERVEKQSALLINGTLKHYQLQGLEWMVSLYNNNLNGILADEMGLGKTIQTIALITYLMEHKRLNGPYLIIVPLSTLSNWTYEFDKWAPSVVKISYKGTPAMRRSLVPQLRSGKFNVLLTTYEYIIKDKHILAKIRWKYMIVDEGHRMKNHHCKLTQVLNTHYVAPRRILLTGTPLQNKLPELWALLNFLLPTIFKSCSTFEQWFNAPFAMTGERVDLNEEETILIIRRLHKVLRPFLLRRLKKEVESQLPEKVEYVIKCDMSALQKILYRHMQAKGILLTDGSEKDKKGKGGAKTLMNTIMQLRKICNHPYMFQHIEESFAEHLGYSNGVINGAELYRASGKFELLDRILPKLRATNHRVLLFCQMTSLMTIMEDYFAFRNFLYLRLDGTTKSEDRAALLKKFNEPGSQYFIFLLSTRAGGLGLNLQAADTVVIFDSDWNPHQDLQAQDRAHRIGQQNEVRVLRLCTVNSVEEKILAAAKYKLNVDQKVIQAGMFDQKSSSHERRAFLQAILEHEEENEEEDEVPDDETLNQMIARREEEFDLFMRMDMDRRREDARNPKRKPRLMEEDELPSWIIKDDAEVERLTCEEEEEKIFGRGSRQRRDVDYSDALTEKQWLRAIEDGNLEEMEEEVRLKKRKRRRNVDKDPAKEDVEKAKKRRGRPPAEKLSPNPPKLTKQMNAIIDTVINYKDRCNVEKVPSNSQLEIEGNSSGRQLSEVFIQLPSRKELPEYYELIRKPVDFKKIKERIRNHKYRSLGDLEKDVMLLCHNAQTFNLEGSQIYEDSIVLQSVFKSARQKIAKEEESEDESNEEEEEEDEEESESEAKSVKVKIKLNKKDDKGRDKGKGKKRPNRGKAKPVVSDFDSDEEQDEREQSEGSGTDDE
Compound,DC50 [1] [nM],Dmax [2] [%],DC50 [3] [nM],also measured
"Cc1ncsc1-c1ccc(CNC(=O)[C@@H]2C[C@@H](O)CN2C(=O)[C@H](c2cc(CCCOCCOCCOCCn3cc(-c4cc(-c5ccccc5O)nnc4N)cn3)no2)C(C)C)cc1 [compound 23, (2S,4R)-1-[(2S)-2-[3-(3-[2-[2-(2-[4-[3-amino-6-(2-hydroxyphenyl)pyridazin-4-yl]-1H-pyrazol-1-yl]ethoxy)ethoxy]ethoxy]propyl)-1,2-oxazol-5-yl]-3-methylbutanoyl]-4-hydroxy-N-[[4-(4-methyl-1,3-thiazol-5-yl)phenyl]methyl]pyrrolidine-2-carboxamide]",> 30,> 75,–,–
"Cc1ncsc1-c1ccc(CNC(=O)[C@@H]2C[C@@H](O)CN2C(=O)[C@H](C(C)C)N2Cc3ccccc3C2=O)c(OCCOCCOCCOCCOCCOCCn2cc(-c3cc(-c4ccccc4O)nnc3N)cn2)c1 [compound 20, (2S,4R)-N-(2-((17-(4-(3-amino-6-(2-hydroxyphenyl)pyridazin-4-yl)-1H-pyrazol-1-yl)-3,6,9,12,15-pentaoxaheptadecyl)oxy)-4-(4-methylthiazol-5-yl)benzyl)-4-hydroxy-1-((S)-3-methyl-2-(1-oxoisoindolin-2-yl)butanoyl)pyrrolidine-2-carboxamide]",> 30,50 to 75,–,–
"Cc1ncsc1-c1cnc([C@H](C)NC(=O)[C@@H]2C[C@@H](O)CN2C(=O)[C@H](c2cc(N3CCC(CN4CCC(O[C@H]5C[C@H](Oc6cc(N7C8CCC7CN(c7cc(-c9ccccc9O)nnc7N)C8)ccn6)C5)CC4)CC3)no2)C(C)C)cn1 [compound 589, (2S,4R)-1-((2S)-2-(3-(4-((4-((1r,3r)-3-((4-(3-(3-amino-6-(2-hydroxyphenyl)pyridazin-4-yl)-3,8-diazabicyclo[3.2.1]octan-8-yl)pyridin-2-yl)oxy)cyclobutoxy)piperidin-1-yl)methyl)piperidin-1-yl)isoxazol-5-yl)-3-methylbutanoyl)-4-hydroxy-N-((S)-1-(5-(4-methylthiazol-5-yl)pyrazin-2-yl)ethyl)pyrrolidine-2-carboxamide]",–,–,> 30,–
"Cc1ncsc1-c1ccc([C@H](COCC(C)C)NC(=O)[C@@H]2C[C@@H](O)CN2C(=O)[C@@H](c2cc(OCCN3CCN(CCOc4cc(N5C6CCC5CN(c5cc(-c7ccccc7O)nnc5N)C6)ccn4)CC3)no2)C(C)C)cc1 [compound 129, (2S,4R)-1-((2R)-2-(3-(2-(4-(2-((4-(3-(3-amino-6-(2-hydroxyphenyl)pyridazin-4-yl)-3,8-diazabicyclo[3.2.1]octan-8-yl)pyridin-2-yl)oxy)ethyl)piperazin-1-yl)ethoxy)isoxazol-5-yl)-3-methylbutanoyl)-4-hydroxy-N-((R)-2-isobutoxy-1-(4-(4-methylthiazol-5-yl)phenyl)ethyl)pyrrolidine-2-carboxamide]",> 30,–,–,–
"Cc1ncsc1-c1ccc([C@H](C)NC(=O)[C@@H]2C[C@@H](O)CN2C(=O)C(c2cc(N3CCC(CN4CCC(O[C@H]5C[C@H](CN6CCOC7(CCN(c8cc(-c9ccccc9O)nnc8N)CC7)C6)C5)CC4)CC3)no2)C(C)C)cc1 (stereo partly drawn) [compound 610, (2S,4R)-1-((R)-2-(3-(4-((4-((1r,3r)-3-((9-(3-amino-6-(2-hydroxyphenyl)pyridazin-4-yl)-1-oxa-4,9-diazaspiro[5.5]undecan-4-yl)methyl)cyclobutoxy)piperidin-1-yl)methyl)piperidin-1-yl)isoxazol-5-yl)-3-methylbutanoyl)-4-hydroxy-N-((S)-1-(4-(4-methylthiazol-5-yl)phenyl)ethyl)pyrrolidine-2-carboxamide]",–,–,< 2.5,"Dmax (BRM degradation, SW1573 cells, Table 2D, read-out: **Dmax (%) (% degraded)): > 75%"
"COc1nc(-c2scnc2C)c(F)cc1[C@@H](C)NC(=O)[C@@H]1C[C@@H](O)CN1C(=O)[C@H](c1cc(OCCN2CCC(O[C@H]3C[C@H](Oc4cc(N5C6CCC5CN(c5cc(-c7ccccc7O)nnc5N)C6)ccn4)C3)CC2)no1)C(C)C [compound 563, (2S,4R)-1-((2S)-2-(3-(2-(4-((1r,3S)-3-((4-(3-(3-amino-6-(2-hydroxyphenyl)pyridazin-4-yl)-3,8-diazabicyclo[3.2.1]octan-8-yl)pyridin-2-yl)oxy)cyclobutoxy)piperidin-1-yl)ethoxy)isoxazol-5-yl)-3-methylbutanoyl)-N-((R)-1-(5-fluoro-2-methoxy-6-(4-methylthiazol-5-yl)pyridin-3-yl)ethyl)-4-hydroxypyrrolidine-2-carboxamide]",–,–,> 30,–
"Cc1ncsc1-c1ccc([C@H](C)NC(=O)[C@@H]2C[C@@H](O)CN2C(=O)[C@@H](c2cc(OCC#CC34CC(CN[C@H]5C[C@H](Oc6cc(N7C8CC[C@@H]7CN(c7cc(-c9ccccc9O)nnc7N)C8)ccn6)C5)(C3)C4)no2)C(C)C)cc1 [compound 382, (2S,4R)-1-((2R)-2-(3-((3-(3-((((1r,3R)-3-((4-(3-(3-amino-6-(2-hydroxyphenyl)pyridazin-4-yl)-3,8-diazabicyclo[3.2.1]octan-8-yl)pyridin-2-yl)oxy)cyclobutyl)amino)methyl)bicyclo[1.1.1]pentan-1-yl)prop-2-yn-1-yl)oxy)isoxazol-5-yl)-3-methylbutanoyl)-4-hydroxy-N-((S)-1-(4-(4-methylthiazol-5-yl)phenyl)ethyl)pyrrolidine-2-carboxamide]",–,–,–,"BRM Dmax (%) (% degraded, when tested at the top concentration of between 0.3 and 10 μM): A (A > 75); DC50 (target protein degradation, read-out: BRM DC50): < 2.5 nM"
"COc1nc(-c2scnc2C)c(F)cc1[C@@H](C)NC(=O)[C@@H]1C[C@@H](O)CN1C(=O)[C@@H](c1cc(OCCN2CCC(O[C@H]3C[C@H](Oc4cc(N5C6CCC5CN(c5cc(-c7ccccc7O)nnc5N)C6)ccn4)C3)CC2)no1)C(C)C [compound 564, (2S,4R)-1-((2R)-2-(3-(2-(4-((1r,3R)-3-((4-(3-(3-amino-6-(2-hydroxyphenyl)pyridazin-4-yl)-3,8-diazabicyclo[3.2.1]octan-8-yl)pyridin-2-yl)oxy)cyclobutoxy)piperidin-1-yl)ethoxy)isoxazol-5-yl)-3-methylbutanoyl)-N-((R)-1-(5-fluoro-2-methoxy-6-(4-methylthiazol-5-yl)pyridin-3-yl)ethyl)-4-hydroxypyrrolidine-2-carboxamide]",–,–,> 30,–
"Cc1ncsc1-c1ccc([C@H](C)NC(=O)[C@@H]2C[C@@H](O)CN2C(=O)[C@@H](c2cc(OCCN3CCN(CC#CCn4cc(-c5cc(-c6ccccc6O)nnc5N)cn4)CC3)no2)C(C)C)cc1 [compound 113, (2S,4R)-1-((R)-2-(3-(2-(4-(4-(4-(3-amino-6-(2-hydroxyphenyl)pyridazin-4-yl)-1H-pyrazol-1-yl)but-2-yn-1-yl)piperazin-1-yl)ethoxy)isoxazol-5-yl)-3-methylbutanoyl)-4-hydroxy-N-((S)-1-(4-(4-methylthiazol-5-yl)phenyl)ethyl)pyrrolidine-2-carboxamide]",< 2.5,> 75,–,–
"Cc1ncsc1-c1ccc([C@@H](NC(=O)[C@@H]2C[C@@H](O)CN2C(=O)[C@H](c2cc(OCCN3CCN(CCOc4cc(N5C6CCC5CN(c5cc(-c7ccccc7O)nnc5N)C6)ccn4)CC3)no2)C(C)C)C(=O)N(C)C2CCC2)cc1 [compound 245, (2S,4R)-1-((2S)-2-(3-(2-(4-(2-((4-(3-(3-amino-6-(2-hydroxyphenyl)pyridazin-4-yl)-3,8-diazabicyclo[3.2.1]octan-8-yl)pyridin-2-yl)oxy)ethyl)piperazin-1-yl)ethoxy)isoxazol-5-yl)-3-methylbutanoyl)-N-((R)-2-(cyclobutyl(methyl)amino)-1-(4-(4-methylthiazol-5-yl)phenyl)-2-oxoethyl)-4-hydroxypyrrolidine-2-carboxamide]",2.5 to 10,–,–,"Dmax (BRM degradation, SW1573 cells, tested at the top concentration of between 0.3 and 10 μM, read-out: Dmax (%) (% degraded)): > 75%"
